Tested on: NOMO1
Assay: cell viability relative to DMSO control; higher = less cytotoxic
Conditions: 48 h
How it was run: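 Viability was expressed as a per-plate percentage of DMSO wells, with cell-free wells as background. Leukemia cells (NOMO1 or SEM at 500 cells/well, P12-Ichikawa at 1000 cells/well) were adapted for at least four passages in each medium and seeded in 1536-well plates (5 μl). Library compounds in DMSO were pin-dosed over an 11-point threefold series from 47 μM to 0.79 nM, and CellTiter-Glo One luminescence was read after 48 h at 37°C.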

[1] = HPLM + 10% dialyzed FBS, 0.000781 µM
[2] = HPLM + 10% dialyzed FBS, 0.00234 µM
[3] = HPLM + 10% dialyzed FBS, 0.00702 µM
[4] = HPLM + 10% dialyzed FBS, 0.0211 µM
[5] = HPLM + 10% dialyzed FBS, 0.0632 µM
[6] = HPLM + 10% dialyzed FBS, 0.19 µM
[7] = HPLM + 10% dialyzed FBS, 0.569 µM
[8] = HPLM + 10% dialyzed FBS, 1.71 µM
[9] = HPLM + 10% dialyzed FBS, 5.12 µM
[10] = HPLM + 10% dialyzed FBS, 15.4 µM
[11] = HPLM + 10% dialyzed FBS, 46.1 µM
[12] = RPMI 5 mM glucose + 10% FBS, 0.000781 µM
[13] = RPMI 5 mM glucose + 10% FBS, 0.00234 µM
[14] = RPMI 5 mM glucose + 10% FBS, 0.00702 µM
[15] = RPMI 5 mM glucose + 10% FBS, 0.0211 µM
[16] = RPMI 5 mM glucose + 10% FBS, 0.0632 µM
[17] = RPMI 5 mM glucose + 10% FBS, 0.19 µM
[18] = RPMI 5 mM glucose + 10% FBS, 0.569 µM
[19] = RPMI 5 mM glucose + 10% FBS, 1.71 µM
[20] = RPMI 5 mM glucose + 10% FBS, 5.12 µM
[21] = RPMI 5 mM glucose + 10% FBS, 15.4 µM
[22] = RPMI 5 mM glucose + 10% FBS, 46.1 µM
[23] = RPMI 5 mM glucose + 10% dialyzed FBS, 0.000781 µM
[24] = RPMI 5 mM glucose + 10% dialyzed FBS, 0.00234 µM
[25] = RPMI 5 mM glucose + 10% dialyzed FBS, 0.00702 µM
[26] = RPMI 5 mM glucose + 10% dialyzed FBS, 0.0211 µM
[27] = RPMI 5 mM glucose + 10% dialyzed FBS, 0.0632 µM
[28] = RPMI 5 mM glucose + 10% dialyzed FBS, 0.19 µM
[29] = RPMI 5 mM glucose + 10% dialyzed FBS, 0.569 µM
[30] = RPMI 5 mM glucose + 10% dialyzed FBS, 1.71 µM
[31] = RPMI 5 mM glucose + 10% dialyzed FBS, 5.12 µM
[32] = RPMI 5 mM glucose + 10% dialyzed FBS, 15.4 µM
[33] = RPMI 5 mM glucose + 10% dialyzed FBS, 46.1 µM

| Compound | cell viability [1] [%] | cell viability [2] [%] | cell viability [3] [%] | cell viability [4] [%] | cell viability [5] [%] | cell viability [6] [%] | cell viability [7] [%] | cell viability [8] [%] | cell viability [9] [%] | cell viability [10] [%] | cell viability [11] [%] | cell viability [12] [%] | cell viability [13] [%] | cell viability [14] [%] | cell viability [15] [%] | cell viability [16] [%] | cell viability [17] [%] | cell viability [18] [%] | cell viability [19] [%] | cell viability [20] [%] | cell viability [21] [%] | cell viability [22] [%] | cell viability [23] [%] | cell viability [24] [%] | cell viability [25] [%] | cell viability [26] [%] | cell viability [27] [%] | cell viability [28] [%] | cell viability [29] [%] | cell viability [30] [%] | cell viability [31] [%] | cell viability [32] [%] | cell viability [33] [%] |
| --- | --- | --- | --- | --- | --- | --- | --- | --- | --- | --- | --- | --- | --- | --- | --- | --- | --- | --- | --- | --- | --- | --- | --- | --- | --- | --- | --- | --- | --- | --- | --- | --- | --- |
| Nc1nc(F)nc2c1ncn2[C@@H]1O[C@H](COP(=O)(O)O)[C@@H](O)[C@@H]1O | 121 | 123 | 135 | 134 | 123 | 125 | 129 | 126 | 109 | 47.3 | 21 | 112 | 112 | 130 | 123 | 125 | 115 | 133 | 118 | 117 | 109 | 38 | – | – | – | – | – | – | – | – | – | – | – |
| CN1CCc2c(c3ccccc3n2Cc2ccc(C(=O)NO)cc2)C1 | 76 | 78.8 | 76.3 | 79.8 | 80 | 80.5 | 82.6 | 87.6 | 97.5 | 64.7 | 38.6 | 75.2 | 70.2 | 77.2 | 82.5 | 74.1 | 73.4 | 80.9 | 76.5 | 75.8 | 78.7 | 47.2 | 71.5 | 69.8 | 91.9 | 91.1 | 84.6 | 87.7 | 89.5 | 98 | 92.5 | 72.3 | 53.5 |
| Cc1cc(Nc2ncc3c(n2)N(C)C(=O)N(c2cc(NC(=O)c4cccc(C(F)(F)F)c4)ccc2C)C3)n(C)n1 | 90.6 | 134 | 123 | 116 | 134 | 111 | 90.5 | 56.7 | 32.2 | 25.9 | 7.8 | 99.6 | 111 | 132 | 156 | 132 | 130 | 146 | 70.6 | 43.8 | 29.6 | 10.7 | 113 | 115 | 123 | 134 | 134 | 132 | 115 | 60.2 | 38.7 | 32.7 | 17.7 |
| C[C@H](CCC(=O)O)[C@H]1CC[C@H]2[C@@H]3[C@H](O)C[C@@H]4C[C@H](O)CC[C@]4(C)[C@H]3CC[C@]12C | 93.9 | 93.7 | 108 | 99.5 | 106 | 98.4 | 102 | 99 | 101 | 120 | 114 | 85 | 88.1 | 92.9 | 88.6 | 101 | 87.1 | 102 | 91.2 | 93.5 | 90.3 | 83 | 73 | 80.4 | 82.5 | 84.9 | 88.9 | 88.8 | 83 | 79.8 | 89.2 | 99.2 | 92.4 |
| NC1=NC(=O)N2CC12 (stereo not drawn) | 82 | 94.5 | 104 | 102 | 107 | 99.3 | 104 | 73.9 | 43.5 | 4.8 | 4.55 | 87.7 | 94.5 | 94.2 | 87.8 | 92.2 | 90.1 | 85.3 | 82.7 | 56.2 | 4.92 | 4.24 | 88.3 | 76.1 | 87.8 | 93.4 | 104 | 101 | 106 | 64.7 | 55.9 | 3.18 | 4.25 |
| CC(=O)SC[C@@H](C)C(=O)N1CCC[C@H]1C(=O)N[C@@H](Cc1ccccc1)C(=O)O | 117 | 119 | 95.1 | 105 | 115 | 114 | 97.2 | 101 | 111 | 110 | 89.3 | 93.5 | 106 | 105 | 88.7 | 94.1 | 100 | 94.4 | 94.5 | 85.3 | 82.5 | 92.1 | 103 | 99.5 | 107 | 106 | 112 | 89.5 | 106 | 97.3 | 103 | 106 | 91.5 |
| OC(=O)\C1=C\N(C2CC2)C3=CC(=C(F)C=C3C1=O)N4CCNCC4 | 108 | 117 | 119 | 129 | 113 | 127 | 118 | 134 | 64.4 | 47.5 | 22.5 | 116 | 126 | 104 | 118 | 119 | 113 | 128 | 118 | 90 | 75.1 | 23.5 | 112 | 132 | 119 | 116 | 120 | 122 | 117 | 123 | 88.1 | 63.5 | 33.9 |
| C[C@]12CCC3c4ccc(O)cc4CCC3C1CCC2=O (stereo partly drawn) | 102 | 102 | 106 | 103 | 107 | 91.9 | 86.2 | 81.6 | 93 | 78.2 | 79.9 | 92.2 | 91.7 | 92.3 | 85.7 | 87.7 | 88.2 | 92.4 | 90.8 | 96.1 | 76 | 79.6 | 82.1 | 90.5 | 91.7 | 92.8 | 96.4 | 86.5 | 86.1 | 84.4 | 89 | 88.6 | 81.1 |

Source: the supplement of paper PMC11451515
